Tests used:
APOL1 G2 [1] = biological target: T1, APOL1 G2 (Homo sapiens, UniProt O14791, DEL388-389); test: APOL1 G2 HEK293 rescue of cell death caused by overexpression of APOL1 (CellTiter-Glo); type: cell-based; conditions: HEK293/T-REx APOL1 G2 clone #2, doxycycline induction, 17 hours, CellTiter-Glo luminescence; reversal of cell death; geometric mean of at least 2 assay runs
T1 construct: expressed in transfected cells; host or cells: HEK293/T-REx APOL1 G2 clone #2, doxycycline-inducible
T1 sequence (O14791 with tags, fused parts or gaps DEL388-389): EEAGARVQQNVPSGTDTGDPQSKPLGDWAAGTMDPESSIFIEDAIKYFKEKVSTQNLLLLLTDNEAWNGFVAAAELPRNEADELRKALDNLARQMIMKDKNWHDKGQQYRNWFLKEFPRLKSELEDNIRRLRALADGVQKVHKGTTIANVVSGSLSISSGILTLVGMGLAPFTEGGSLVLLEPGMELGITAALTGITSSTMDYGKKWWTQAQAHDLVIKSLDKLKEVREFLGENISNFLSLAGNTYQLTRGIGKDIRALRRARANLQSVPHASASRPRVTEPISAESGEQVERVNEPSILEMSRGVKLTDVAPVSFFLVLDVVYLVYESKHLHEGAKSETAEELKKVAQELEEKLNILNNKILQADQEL
In short: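 Doxycycline (6 ng/mL)-induced HEK293/T-REx APOL1 G2 clone seeded at 5,000 cells/well with compound in duplicate 8-point 3-fold series (0.5% DMSO), 17 h at 37 °C. CellTiter-Glo luminescence; EC50 from four-parameter logistic fit, geometric mean of ≥2 runs.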

APOL1 G2 [2] = biological target: T1, APOL1 G2; test: APOL1 G2 FLIPR calcium influx assay (HEK T-REx/GCaMP6f/APOL1 G2 K6.3 cells); type: cell-based; conditions: HEK293 clone expressing GCaMP6f, doxycycline-induced APOL1 G2; prevention of calcium influx; geometric mean of at least 2 assay runs
In short: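 HEK293 clone stably expressing GCaMP6f, APOL1 G2 induced with doxycycline for 6 h; compounds (duplicate 8-point dose response) preincubated 10 min at room temperature in Ca2+-free Tyrode's buffer, pH 7.4. Ca2+ added to 5 mM final, influx read on FLIPR; AC50 is geometric mean of ≥2 runs.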

| SMILES | EC50 (APOL1 G2 [1]) [nM] | AC50 (APOL1 G2 [2]) [nM] |
| --- | --- | --- |
| C[C@@H]1C[C@H](COc2ccc(S(C)(=O)=O)cc2)CN1C1CCc2c(C#N)cc(Cl)cc2C1 (single isomer, unassigned) [Compound 8, (6R or 6S)-3-chloro-6-[(2R,4S)-4-[(4-methanesulfonylphenoxy)methyl]-2-methylpyrrolidin-1-yl]-5,6,7,8-tetrahydronaphthalene-1-carbonitrile] | 150 | 1070 |
| CS(=O)(=O)c1ccc(OC[C@@H]2CN(CCc3cccc(C#N)c3)CCN2)cc1C(F)(F)F [Compound 113, 3-{2-[(3S)-3-{[4-methanesulfonyl-3-(trifluoromethyl)phenoxy]methyl}piperazin-1-yl]ethyl}benzonitrile] | 726 | 634 |
| C[C@@H]1C[C@H](COc2ccc(S(C)(=O)=O)cc2)CN1C1CCc2c(Cl)cccc2C1 (single isomer, unassigned) [Compound 139, (2R,4S)-1-[(2S or 2R)-5-chloro-1,2,3,4-tetrahydronaphthalen-2-yl]-4-[(4-methanesulfonylphenoxy)methyl]-2-methylpyrrolidine] | 260 | 1260 |
| C[C@@H]1CN(CCc2cccc(C#N)c2)C[C@H]1COc1cnc(S(C)(=O)=O)cn1 [Compound 20, 3-{2-[(3S,4S)-3-{[(5-methanesulfonylpyrazin-2-yl)oxy]methyl}-4-methylpyrrolidin-1-yl]ethyl}benzonitrile] | 1120 | 776 |
| CC(C(O)c1cc(Cl)cc(C#N)c1)N1C[C@@H](COc2ccc(S(C)(=O)=O)cc2)[C@H](C)C1 (single isomer, unassigned) [Compound 101, 3-chloro-5-((1S,2R or 1R,2S)-1-hydroxy-2-((3S,4S)-3-methyl-4-((4-(methylsulfonyl)phenoxy)methyl)pyrrolidin-1-yl)propyl)benzonitrile] | > 10000 | 765 |
| COC(=O)CCCS(=O)(=O)c1ccc(OC[C@@H]2CN(CCc3cc(Cl)cc(C#N)c3)C[C@H]2C)cc1 [Compound 80, methyl 4-(4-{[(3S,4S)-1-[2-(3-chloro-5-cyanophenyl)ethyl]-4-methylpyrrolidin-3-yl]methoxy}benzenesulfonyl)butanoate] | 202 | 404 |
| C[C@@H]1CN(CCc2cccc(C#N)c2)C[C@H]1COc1ccc(S(C)(=O)=O)c(C#N)c1 [Compound 86, 5-{[(3S,4S)-1-[2-(3-cyanophenyl)ethyl]-4-methylpyrrolidin-3-yl]methoxy}-2-methanesulfonylbenzonitrile] | 20.4 | 117 |
| C[C@@H]1C[C@H](COc2ccc(S(=O)(=O)CCCS(C)(=O)=O)cc2)CN1C1CCc2ccc(C#N)cc2C1 (single isomer, unassigned) [Compound 35] | 256 | 948 |
| CN=S(C)(=O)c1ccc(OC[C@@H]2CN(CCc3cccc(C#N)c3)C[C@H]2C)cn1 (stereo partly drawn) [Compound 71, 3-{2-[(3S,4S)-3-methyl-4-[({6-[methyl(methylimino)oxo-λ^6-sulfanyl]pyridin-3-yl}oxy)methyl]pyrrolidin-1-yl]ethyl}benzonitrile] | 287 | 492 |
| Cc1cc(OC[C@@H]2CN(CCc3cc(Cl)cc(C#N)c3)CCN2)ccc1S(C)(=O)=O [Compound 112, 3-chloro-5-{2-[(3S)-3-[(4-methanesulfonyl-3-methylphenoxy)methyl]piperazin-1-yl]ethyl}benzonitrile] | 296 | 409 |
| C[C@H]1C[C@H](COc2ccc(S(C)(=O)=O)cc2)CN1CCc1cccc(Cl)c1 [Compound 143, (2S,4S)-1-[2-(3-chlorophenyl)ethyl]-4-[(4-methanesulfonylphenoxy)methyl]-2-methylpyrrolidine] | 1200 | 936 |
| C[C@@H]1CN(CC(O)c2cccc(C#N)c2)C[C@H]1COc1ccc(S(C)(=O)=O)nc1 (single isomer, unassigned) [Compound 106, 3-[(1R or 1S)-1-hydroxy-2-[(3S,4S)-3-{[(6-methanesulfonylpyridin-3-yl)oxy]methyl}-4-methylpyrrolidin-1-yl]ethyl]benzonitrile] | > 10000 | > 10000 |
| C[C@@H]1C[C@H](COc2ccc(S(=O)(=O)CCCS(C)(=O)=O)cc2)CN1C1CCc2ccc(C#N)cc2C1 (single isomer, unassigned) [Compound 34, (7R or 7S)-7-[(2R,4S)-4-{[4-(3-methanesulfonylpropanesulfonyl)phenoxy]methyl}-2-methylpyrrolidin-1-yl]-5,6,7,8-tetrahydronaphthalene-2-carbonitrile] | 86.9 | 951 |
| C[C@@H]1C[C@H](COc2ccc(S(=O)(=O)CCCS(C)(=O)=O)cc2)CN1C1CCc2ccc(C#N)cc2C1 (single isomer, unassigned) [Compound 36, (7S or 7R)-7-[(2R,4S)-4-{[4-(3-methanesulfonylpropanesulfonyl)phenoxy]methyl}-2-methylpyrrolidin-1-yl]-5,6,7,8-tetrahydronaphthalene-2-carbonitrile] | 36.3 | 714 |
| C[C@@H]1C[C@H](COc2ccc(S(C)(=O)=O)cc2)CN1C1Cc2ccc(Cl)cc2C1 (single isomer, unassigned) [Compound 2] | 693 | 1030 |
| C[C@@H]1C[C@H](COc2ccc(S(C)(=O)=O)cc2)CN1C1CCc2ccc(C#N)cc2C1 (single isomer, unassigned) [Compound 136, (7S or 7R)-7-[(2R,4S)-4-[(4-methanesulfonylphenoxy)methyl]-2-methylpyrrolidin-1-yl]-5,6,7,8-tetrahydronaphthalene-2-carbonitrile] | 704 | 707 |
| CC(Cc1cc(Cl)cc(C#N)c1)N1C[C@@H](COc2ccc(S(C)(=O)=O)cc2)[C@H](C)C1 (stereo partly drawn) [Compound 17, 3-chloro-5-[2-[(3S,4S)-3-[(4-methanesulfonylphenoxy)methyl]-4-methylpyrrolidin-1-yl]propyl]benzonitrile] | 527 | 380 |
| C[C@@H]1C[C@H](COc2ccc(S(=O)(=O)CCO)cc2)CN1C1CCc2ccc(C#N)cc2C1 (single isomer, unassigned) [Compound 60, (7S or 7R)-7-[(2R,4S)-4-{[4-(2-hydroxyethanesulfonyl)phenoxy]methyl}-2-methylpyrrolidin-1-yl]-5,6,7,8-tetrahydronaphthalene-2-carbonitrile] | 37 | 477 |
| CC(=O)N(C)CCS(=O)(=O)c1ccc(OC[C@@H]2CN(CCc3cccc(C#N)c3)C[C@H]2C)cc1 [Compound 76, N-[2-(4-{[(3S,4S)-1-[2-(3-cyanophenyl)ethyl]-4-methylpyrrolidin-3-yl]methoxy}benzenesulfonyl)ethyl]-N-methylacetamide] | 222 | 250 |
| CS(=O)(=O)c1ccc(OC[C@@H]2CN(CCc3cccc(C#N)c3)C[C@H]2CO)cc1 [Compound 25, 3-{2-[(3S,4S)-3-(hydroxymethyl)-4-[(4-methanesulfonylphenoxy)methyl]pyrrolidin-1-yl]ethyl}benzonitrile] | 1010 | 343 |
| CC(Cc1cc(Cl)cc(C#N)c1)N1C[C@@H](COc2ccc(S(C)(=O)=O)cc2)[C@H](C)C1 (single isomer, unassigned) [Compound 18, 3-chloro-5-[(2S or 2R)-2-[(3S,4S)-3-[(4-methanesulfonylphenoxy)methyl]-4-methylpyrrolidin-1-yl]propyl]benzonitrile] | 262 | 412 |
| CN1CC(S(=O)(=O)c2ccc(OC[C@@H]3CN(CCc4cccc(Cl)c4)CCN3)cc2)C1 [Compound 108, (3S)-1-[2-(3-chlorophenyl)ethyl]-3-({4-[(1-methylazetidin-3-yl)sulfonyl]phenoxy}methyl)piperazine] | 664 | 337 |
| C[C@@H]1CN(CC(O)c2cccc(C#N)c2)C[C@H]1COc1ccc(S(C)(=O)=O)nc1 (single isomer, unassigned) [Compound 105, 3-[(1S or 1R)-1-hydroxy-2-[(3S,4S)-3-{[(6-methanesulfonylpyridin-3-yl)oxy]methyl}-4-methylpyrrolidin-1-yl]ethyl]benzonitrile] | > 10000 | > 10000 |
| CS(=O)(=O)C1(c2ccc(OC[C@@H]3CN(CCc4cc(Cl)cc(C#N)c4)CCN3)cc2)CC1 [Compound 110, 3-chloro-5-{2-[(3S)-3-{[4-(1-methanesulfonylcyclopropyl)phenoxy]methyl}piperazin-1-yl]ethyl}benzonitrile] | 93.2 | 140 |
| C[C@@H]1C[C@H](COc2ccc(S(=O)(=O)CCO)cc2)CN1C1CCc2ccc(Cl)cc2C1 (single isomer, unassigned) [Compound 62, 2-(4-{[(3S,5R)-1-[(2R or 2S)-7-chloro-1,2,3,4-tetrahydronaphthalen-2-yl]-5-methylpyrrolidin-3-yl]methoxy}benzenesulfonyl)ethan-1-ol] | 201 | 462 |

From US20260055083A1, “APOL1 INHIBITORS AND METHODS OF USE” (Maze Therapeutics, Inc., priority 2022, published 2026)
